Test system: COVID-19 patients with severe pneumonia
Experiment: Phase 2 clinical study of Reparixin plus standard of care in COVID-19 patients with severe pneumonia
Format: in vivo, human
Conditions: for Composite endpoint, first occurrence (% patients) / Composite endpoint, first occurrence (n patients): oral tablets 1200 mg TID plus standard of care
Description: A phase 2 clinical study has been conducted to assess efficacy and safety of Reparixin in COVID-19 patients with severe pneumonia.
The patients participating to the trial satisfied the following inclusion criteria: • a) at least one of the following: • respiratory distress, RR≥30 breaths/min without oxygen; • Partial arterial oxygen pressure (PaO2)/Fraction of inspiration O2 (FiO2)>100<300 mmHg (1 mmHg=0.133 kPa). • b) chest imaging confirming lung involvement and inflammation. • c) inflammatory status as documented by at least one of the following: Lactate dehydrogenase (LDH)>normal range, C-reactive protein (CRP)≥100 mg/L or IL-6≥40 pg/mL, serum ferritin ≥900 ng/mL, XDP >20 mcg/mL.
Fourteen patients received the standard of care treatment only (Control group).
Thirty-two patients received Reparixin oral tablets 1200 mg TID in addition to the standard of care treatment (Reparixin group) for a maximum of 21 days.
In both groups, where necessary due to the presence of concomitant pathologies (diabetes, hypertension, cancer etc. . . ), the patients also continued to receive specific treatments for these.
The first occurrence of the composite primary endpoint (at least one of the following events: death, supplemental oxygen requirement, invasive mechanical ventilation use, admission to ICU, and use of a rescue medication for any reason) was evaluated in all the patients and the data obtained are shown in Table 2 below.
The data collected in the clinical trial were analyzed by means of the Kaplan-Meier methodology and the log-rank test was used to test for differences between treatment groups. The Kaplan-Meier method is a well-established method to analyse the patterns of events over time to estimate the probability of being free of event. The form of the estimated “survival curves” is a step function, with steps down occurring at those time points where there are events. As patients have events or are censored (patients who exit the analyses for other reasons than events) the number of patients remaining evaluable in the trial in each of the treatment groups is diminishing. The probabilities of being free of event are, as a consequence, estimated from fewer and fewer patients as time progresses. To give information in relation to this, the number of patients at risk at various time points are provided: these are the numbers of patients still at risk of having their first occurrence of the composite endpoint.

[1] = Reparixin plus standard of care vs standard of care only

## CC(C)Cc1ccc([C@@H](C)C(=O)NS(C)(=O)=O)cc1 [Reparixin, R-(-)-2-(4-isobutylphenyl)propionyl methansulfonamide]
Day 1, 32 evaluable patients
  Composite endpoint, first occurrence (% patients): 9.4%
Day 1, 32 evaluable patients, composite = death, supplemental oxygen requirement, invasive mechanical ventilation use, admission to ICU, or rescue medication
  Composite endpoint, first occurrence (n patients): 3
Day 2, 27 evaluable patients
  Composite endpoint, first occurrence (% patients): 7.4%
  Composite endpoint, first occurrence (n patients): 2
Reparixin group compared to the Control group
  Time of recovery of patients: significantly reduced
Reparixin group vs Control group (standard of care only), log-rank test p-value 0.0031
  Freedom from composite event over time (Kaplan-Meier, FIG. 1): statistically significant higher freedom from event
Reparixin group vs Control group, shown by incidence of the composite endpoints
  Progression to more severe respiratory disease: prevents the progression to more severe respiratory disease
[1]
  Days of oxygen use: fewer days of oxygen use
  Duration of mechanical ventilation: shorter subsequent duration of mechanical ventilation
Patients in the Reparixin group
  Respiratory function: improved respiratory function

— patent US12636268B2, “CXCL8 inhibitors for use in the treatment of COVID-19” (Dompe' Farmaceutici SPA, priority 2020, dated 2026)
